Reference: PubChem BioAssay AID2043 (NMMLSC, 2009)
Calls of active or inactive are those of the source. The rule behind the calls is not given here.

Molecular target: GTPase HRas, activated mutant (human)
Assay: activated mutant Ras nucleotide binding blockade – biochemical, additional analogs, multiplex flow cytometry, Ki, SAR follow-up (AID 2043)
Conditions: bead-based flow cytometry multiplex, fluorescent GTP binding; for Ki: measured here: Ki derived from EC50

SMILES | EC50 | Ki
O=C(C#Cc1ccccc1)c1ccc(F)cc1 | inactive | 1340 nM
CC(C(=O)O)c1cccc(C(=O)c2ccccc2)c1 (stereo unspecified) | inactive | 30 nM
O=C(C#Cc1ccccc1)c1ccccc1[N+](=O)[O-] | inactive | 560 nM
